For data set [1], the system named is human hepG2 cells. Kind of data set: In vitro toxicity in human hepG2 cells (AlamarBlue viability). The data set is classed as cell-based. The following applies: for IC50: human hepG2 cells. Summed up: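 HepG2 cells at 20,000/well adhered overnight, then were exposed to compounds at 1 to 1×10^−6 mM (DMSO ≤1%) for 24 h at 37 °C. Viability was read with AlamarBlue (10% final) after a further 4 h at 37 °C.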
A general note: The colour change of resazurin is a common sign of viable cells or microbes.

Data set [2] has as its system human serum albumin and α1-acid glycoprotein (AGP). The following applies: 500 μM Example 26; HSA and AGP 24:1 up to 140 μM.
Protocol: Enzymes in the kit are immobilized at a solid phase. […] Buffer without inhibitor was included as a control. After incubation, the suspensions were centrifuged and diluted 1:10 in 50 mM HEPES buffer pH 7.5 supplemented with 1 μM zinc^2+ and VIM-2 (final concentration 1 nM).

Like-named read-outs stand apart in the source and are kept apart here. Bounds are passed on as bounds.

The results in this text go back to patent publication US11649222B2, “Compounds” (UNIVERSITETET I OSLO, priority 2016, dated 2023).

Take `CN(C[C@H](O)[C@@H](O)[C@H](O)[C@H](O)CO)C(=O)c1ccc(CN(Cc2ccccn2)Cc2ccccn2)nc1` [Example 26, 6-((bis(pyridin-2-ylmethyl)amino)methyl)-N-methyl-N-((2S,3R,4R,5R)-2,3,4,5,6-pentahydroxyhexyl)nicotinamide]: in data set [1] (hepG2 cells), the “EC50 in hepG2 cells” value is on record as “non-toxic”. Besides, the IC50 in data set [1] (24 hours, AlamarBlue, 8 replicates, read-out: IC50) was > 1000 µM; in data set [1] (read-out: IC50h), ≥ 116 µM. In addition, in data set [2], the “effect of protein binding on inhibition of VIM-2” value was “protein binding is not affecting the inhibitory activity”.
